Laboratory results taken from patent US12558428B2, “Heterobifunctional compounds and their use in treating disease” (Halda Therapeutics OpCo, Inc., priority 2024, dated 2026).
Where two headings read alike, the source gives them in different places.

Columns and labels:
Assay type in all cases: cell-based
[1] = tested on: T-Rex 293 cells lacking increased expression of estrogen receptor alpha protein; assay: Cellular growth inhibition assay, T-Rex 293 cells, (−) doxycycline; conditions: Table 7-A, T-Rex 293 cells without doxycycline (lacking increased ERα expression), 72 hours, CellTiter-Glo, read-out: (−) Dox GI50
Procedure, shortened: (§1)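 Cells of an inducible ERα-expressing T-Rex 293 clone are seeded in charcoal-dextran FBS medium with or without 3 ng/mL doxycycline, then treated after 24 h with compound dilutions (0.5% DMSO) for 72 h. Growth inhibition is measured by CellTiter-Glo luminescence and expressed as GI50.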

[2] = tested on: T-Rex 293 cells having increased expression of estrogen receptor alpha protein; assay: Cellular growth inhibition assay, T-Rex 293 cells, (+) doxycycline; conditions: Table 7-A, T-Rex 293 cells with doxycycline (increased ERα expression), 72 hours, CellTiter-Glo, read-out: (+) Dox GI50
Procedure, shortened: as §1

[3] = tested on: MCF7 cells (ATCC #HTB-22); assay: Cellular growth inhibition assay, MCF7 cells purchased from ATCC; conditions: Table 8-A, MCF7 cells purchased from ATCC, six days, CellTiter-Glo, read-out: GI50
Procedure, shortened: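 GI50 values come from a four-parameter fit of CellTiter-Glo 2.0 luminescence after six days of compound exposure at 37° C. Seeding density depended on the source: 225 cells/well for ECACC MCF7, 1,500 for ATCC. Medium was RPMI 1640 with 10% FBS and 0.2 U/ml insulin.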

Row | Compound | GI50 ([3]; Homo sapiens, MCF7, 144 h) | GI50 [3] | GI50 ([1]; T-REx-293, 72 h) | GI50 ([2]; T-REx-293, 72 h) | GI50 [1] | GI50 [2]
1 | Cc1sc2c(c1C)C(c1ccc(N3CCC(O)(CN4CCN(c5ccc([C@H]6c7ccc(O)cc7CC[C@H]6c6ccc(F)cc6F)cc5)CC4)CC3)cc1)=N[C@H](Cc1ncco1)c1nnc(C)n1-2 [III-192] | > 2500 nM | – | > 2500 nM | > 2500 nM | – | –
2 | Cc1sc2c(c1C)C(c1ccc(N3CCC(O)(CN4CCN(c5cc(F)c([C@H]6c7ccc(O)cc7CC[C@H]6c6ccccc6)c(F)c5)CC4)CC3)cc1)=N[C@@H](Cc1ncco1)c1nnc(C)n1-2 [III-194] | > 2500 nM | – | > 2500 nM | > 2500 nM | – | –
3 | Cc1sc2c(c1C)C(c1ccc(N3CCC(O)(CN4CCN(c5cc(F)c([C@H]6c7ccc(O)cc7CC[C@H]6c6ccccc6)c(F)c5)CC4)CC3)cc1)=N[C@H](Cc1ncco1)c1nnc(C)n1-2 [III-195] | 500 to 2500 nM | – | > 2500 nM | > 2500 nM | – | –
4 | Cc1sc2c(c1C)C(c1ccc(N3CCC(O)(CN4CCN(c5ccc([C@H]6c7ccc(C(=O)O)cc7CC[C@H]6c6ccccc6)cc5)CC4)CC3)cc1)=N[C@H](Cc1ncco1)c1nnc(C)n1-2 [III-198] | > 2500 nM | – | > 2500 nM | > 2500 nM | – | –
5 | Cc1sc2c(c1C)C(c1ccc(N3CCC(O)(CN4CCN(c5ccc([C@H]6c7ccc(C(=O)O)cc7CC[C@H]6c6ccccc6)cc5)CC4)CC3)cc1)=N[C@@H](Cc1ncco1)c1nnc(C)n1-2 [III-199] | > 2500 nM | – | > 2500 nM | > 2500 nM | – | –
6 | Cc1sc2c(c1C)C(c1ccc(N3CCC(O)(CN4CCN(c5ccc([C@H]6c7ccc(O)cc7CC[C@H]6c6ccc(F)cc6)cc5)CC4)CC3)cc1)=N[C@H](Cc1ncco1)c1nnc(C)n1-2 [III-207] | 500 to 2500 nM | – | > 2500 nM | > 2500 nM | – | –
7 | Cc1sc2c(c1C)C(c1ccc(N3CCC(O)(CN4CCN(c5ccc([C@@H]6c7ccc(O)cc7CC[C@@H]6c6ccc(F)cc6)cc5)CC4)CC3)cc1)=N[C@H](Cc1ncco1)c1nnc(C)n1-2 [III-208] | 500 to 2500 nM | – | > 2500 nM | > 2500 nM | – | –
8 | Cc1sc2c(c1C)C(c1ccc(N3CCC(O)(CN4CCN(c5ccc([C@H]6c7ccc(C(=O)O)cc7CC[C@H]6c6ccc(F)cc6F)cc5)CC4)CC3)cc1)=NC(Cc1ncco1)c1nnc(C)n1-2 (stereo partly drawn) [III-213] | > 2500 nM | – | > 2500 nM | > 2500 nM | – | –
9 | Cc1sc2c(c1C)C(c1ccc(N3CCN(CC4CCN(c5ccc([C@@H]6c7ccc(O)cc7CC[C@@H]6c6ccccc6)cc5)CC4)CC3)cc1)=N[C@H](Cn1cccn1)c1nnc(C)n1-2 [III-216] | 50 to 500 nM | – | > 2500 nM | > 2500 nM | – | –
10 | Cc1sc2c(c1C)C(c1ccc(N3CCC(O)(CN4CCN(c5ccc([C@@H]6c7ccc(O)cc7CC[C@@H]6c6ccccc6)nn5)CC4)CC3)cc1)=N[C@@H](C)c1nnc(C)n1-2 [III-217] | 50 to 500 nM | – | 50 to 500 nM | < 50 nM | – | –
11 | Cc1sc2c(c1C)C(c1ccc(N3CCC(O)(CN4CCN(c5ccc([C@H]6c7ccc(O)cc7CC[C@H]6c6ccccc6)nn5)CC4)CC3)cc1)=N[C@@H](C)c1nnc(C)n1-2 [III-218] | 50 to 500 nM | – | 50 to 500 nM | < 50 nM | – | –
12 | Cc1sc2c(c1C)C(c1ccc(N3CC(CN4CC(CN5CC(c6ccc([C@@H]7c8ccc(O)cc8CC[C@@H]7c7ccccc7)cc6)C5)C4)C3)cc1)=N[C@@H](C)c1nnc(C)n1-2 [III-219] | 50 to 500 nM | – | 50 to 500 nM | < 50 nM | – | –
13 | Cc1sc2c(c1C)C(c1ccc(N3CC(CN4CC(CC5CN(c6ccc([C@@H]7c8ccc(O)cc8CC[C@@H]7c7ccccc7)cc6)C5)C4)C3)cc1)=N[C@@H](C)c1nnc(C)n1-2 [III-220] | 50 to 500 nM | – | 50 to 500 nM | < 50 nM | – | –
14 | Cc1sc2c(c1C)C(c1ccc(N3CC(CN4CC(CC5CN(c6ccc([C@@H]7c8ccc(O)cc8CC[C@@H]7c7ccccc7)cc6)C5)C4)C3)cc1)=N[C@@H](C)c1nnc(C)n1-2 [III-221] | – | < 50 nM | – | – | 50 to 500 nM | < 50 nM
15 | Cc1sc2c(c1C)C(c1ccc(N3CC4(CCC(F)(CN5CCC(c6ccc([C@@H]7c8ccc(O)cc8CC[C@@H]7c7ccccc7)cc6)CC5)CC4)C3)cc1)=N[C@@H](C)c1nnc(C)n1-2 [III-222] | 50 to 500 nM | – | > 2500 nM | < 50 nM | – | –

Continued, in another order:

Row | GI50 ([3]; Homo sapiens, MCF7, 144 h) | GI50 [3] | Compound | GI50 ([1]; T-REx-293, 72 h) | GI50 ([2]; T-REx-293, 72 h) | GI50 [1] | GI50 [2]
16 | 50 to 500 nM | – | Cc1sc2c(c1C)C(c1ccc(N3CCC4(CCN(CC5CCC(c6ccc([C@@H]7c8ccc(O)cc8CC[C@@H]7c7ccccc7)cc6)CC5)C4)CC3)cc1)=N[C@@H](C)c1nnc(C)n1-2 (stereo partly drawn) [III-191] | 50 to 500 nM | < 50 nM | – | –
17 | 50 to 500 nM | – | Cc1sc2c(c1C)C(c1ccc(N3CCC(O)(CN4CCN(c5ccc([C@@H]6c7ccc(O)cc7CC[C@@H]6c6ccc(F)cc6F)cc5)CC4)CC3)cc1)=N[C@H](Cc1ncco1)c1nnc(C)n1-2 [III-193] | 500 to 2500 nM | 50 to 500 nM | – | –
18 | < 50 nM | – | Cc1sc2c(c1C)C(c1ccc(N3CCC(O)(CN4CCN(c5cc(F)c([C@@H]6c7ccc(O)cc7CC[C@@H]6c6ccccc6)c(F)c5)CC4)CC3)cc1)=N[C@@H](Cc1ncco1)c1nnc(C)n1-2 [III-196] | 50 to 500 nM | < 50 nM | – | –
19 | 50 to 500 nM | – | Cc1sc2c(c1C)C(c1ccc(N3CCC(O)(CN4CCN(c5cc(F)c([C@@H]6c7ccc(O)cc7CC[C@@H]6c6ccccc6)c(F)c5)CC4)CC3)cc1)=N[C@H](Cc1ncco1)c1nnc(C)n1-2 [III-197] | 50 to 500 nM | < 50 nM | – | –
20 | < 50 nM | – | Cc1sc2c(c1C)C(c1ccc(N3CCC(O)(CN4CCN(c5ccc([C@@H]6c7ccc(C(=O)O)cc7CC[C@@H]6c6ccccc6)cc5)CC4)CC3)cc1)=N[C@@H](Cc1ncco1)c1nnc(C)n1-2 [III-200] | 50 to 500 nM | < 50 nM | – | –
21 | 50 to 500 nM | – | Cc1sc2c(c1C)C(c1ccc(N3CCC(O)(CN4CCN(c5ccc([C@@H]6c7ccc(C(=O)O)cc7CC[C@@H]6c6ccccc6)cc5)CC4)CC3)cc1)=N[C@H](Cc1ncco1)c1nnc(C)n1-2 [III-201] | 50 to 500 nM | 50 to 500 nM | – | –
22 | < 50 nM | – | Cc1sc2c(c1C)C(c1ccc(N3CCC4(CCN(CC5CCN(c6ccc([C@@H]7c8ccc(O)cc8CC[C@@H]7c7ccccc7)cc6)CC5)CC4)C3)cc1)=N[C@@H](Cc1ncco1)c1nnc(C)n1-2 [III-202] | 50 to 500 nM | < 50 nM | – | –
23 | < 50 nM | – | Cc1sc2c(c1C)C(c1ccc(N3CC(CC4(F)CCN(CC5CN(c6ccc([C@@H]7c8ccc(O)cc8CC[C@@H]7c7ccccc7)cc6)C5)CC4)C3)cc1)=N[C@@H](C)c1nnc(C)n1-2 [III-203] | 500 to 2500 nM | < 50 nM | – | –
24 | 50 to 500 nM | – | Cc1sc2c(c1C)C(c1ccc(N3CCC(O)(CN4CCN(c5ccc([C@@H]6c7ccc(C(=O)O)cc7CC[C@@H]6c6ccc(F)cc6F)cc5)CC4)CC3)cc1)=N[C@@H](C)c1nnc(C)n1-2 [III-204] | 500 to 2500 nM | < 50 nM | – | –
25 | 50 to 500 nM | – | Cc1sc2c(c1C)C(c1ccc(N3CCC(O)(CN4CCN(c5ccc([C@H]6c7ccc(C(=O)O)cc7CC[C@H]6c6ccc(F)cc6F)cc5)CC4)CC3)cc1)=N[C@@H](C)c1nnc(C)n1-2 [III-205] | 500 to 2500 nM | 50 to 500 nM | – | –
26 | < 50 nM | – | Cc1sc2c(c1C)C(c1ccc(N3CC4(CCC(O)(CN5CCC(c6ccc([C@@H]7c8ccc(O)cc8CC[C@@H]7c7ccccc7)cc6)CC5)CC4)C3)cc1)=N[C@@H](C)c1nnc(C)n1-2 [III-206] | 500 to 2500 nM | < 50 nM | – | –
27 | 50 to 500 nM | – | Cc1sc2c(c1C)C(c1ccc(N3CCC(O)(CN4CCN(c5ccc([C@H]6c7ccc(O)cc7CC[C@H]6c6ccc(F)cc6)cc5)CC4)CC3)cc1)=N[C@@H](Cc1ncco1)c1nnc(C)n1-2 [III-209] | 50 to 500 nM | < 50 nM | – | –
28 | < 50 nM | – | Cc1sc2c(c1C)C(c1ccc(N3CCC(O)(CN4CCN(c5ccc([C@@H]6c7ccc(O)cc7CC[C@@H]6c6ccc(F)cc6)cc5)CC4)CC3)cc1)=N[C@@H](Cc1ncco1)c1nnc(C)n1-2 [III-210] | 50 to 500 nM | < 50 nM | – | –
29 | < 50 nM | – | Cc1sc2c(c1C)C(c1ccc(N3CC4(CCC(O)(CN5CCC(c6ccc([C@@H]7c8ccc(O)cc8CC[C@@H]7c7ccccc7)cc6)CC5)CC4)C3)cc1)=N[C@@H](Cc1ncco1)c1nnc(C)n1-2 [III-211] | 50 to 500 nM | < 50 nM | – | –
30 | < 50 nM | – | Cc1sc2c(c1C)C(c1ccc(N3CC(CN4CCC(F)(CC5CN(c6ccc([C@@H]7c8ccc(O)cc8CC[C@@H]7c7ccccc7)cc6)C5)CC4)C3)cc1)=N[C@@H](C)c1nnc(C)n1-2 [III-212] | 50 to 500 nM | < 50 nM | – | –
31 | < 50 nM | – | Cc1sc2c(c1C)C(c1ccc(N3CCC(O)(CN4CCN(c5ccc([C@@H]6c7ccc(C(=O)O)cc7CC[C@@H]6c6ccc(F)cc6F)cc5)CC4)CC3)cc1)=NC(Cc1ncco1)c1nnc(C)n1-2 (stereo partly drawn) [III-214] | 50 to 500 nM | < 50 nM | – | –
32 | < 50 nM | – | Cc1sc2c(c1C)C(c1ccc(N3CCN(CC4CCN(c5ccc([C@@H]6c7ccc(O)cc7CC[C@@H]6c6ccccc6)cc5)CC4)CC3)cc1)=N[C@@H](Cn1cccn1)c1nnc(C)n1-2 [III-215] | > 2500 nM | < 50 nM | – | –
